Structures can show the parent of a compound that is named as a salt.
Legend:
[1] = target: T1, human neuronal constitutive NOS (hncNOS) (Homo sapiens, UniProt P29475); assay: Citrulline assay for nitric oxide synthase, hncNOS; assay type: biochemical; conditions: recombinant enzyme, conversion of L-[2,3-3H]-arginine to citrulline, 30 μM L-arginine, calmodulin included
T1 construct: made in house; host or cells: Sf9 insect cells (baculovirus vector)
Description: (§1) Citrulline Assay for Nitric Oxide Synthase
(§2) Nitric oxide synthase (NOS) activity can be measured by monitoring the conversion of L-[2,3-^3H]-arginine to L-[2,3-^3H]-citrulline (Bredt and Snyder, Proc. Natl. Acad. Sci. U.S.A., 87, 682-685, 1990 and Moore et al, J. Med. Chem., 39, 669-672, 1996). Human inducible NOS (hiNOS), human endothelial constitutive NOS (hecNOS) and human neuronal constitutive NOS (hncNOS) are each cloned from RNA extracted from human tissue. The cDNA for human inducible NOS (hiNOS) is isolated from a λcDNA library made from RNA extracted from a colon sample from a patient with ulcerative colitis. The cDNA for human endothelial constitutive NOS (hecNOS) is isolated from a λcDNA library made from RNA extracted from human umbilical vein endothelial cells (HUVEC) and the cDNA for human neuronal constitutive NOS (hncNOS) is isolated from a λcDNA library made from RNA extracted from human cerebellum obtained from a cadaver. The recombinant enzymes are expressed in Sf9 insect cells using a baculovirus vector (Rodi et al, in The Biology of Nitric Oxide, Pt. 4: Enzymology, Biochemistry and Immunology: Moncada, S., Feelisch, M., Busse, R., Higgs, E., Eds.; Portland Press Ltd.: London, 1995; pp 447-450). Enzyme activity is isolated from soluble cell extracts and partially purified by DEAE-Sepharose chromatography. To measure NOS activity, 10 μL of enzyme is added to 40 μL of 50 mM Tris (pH 7.6) in the presence or absence of test compounds and the reaction initiated by the addition of 50 μL of a reaction mixture containing 50 mM Tris (pH 7.6), 2.0 mg/mL bovine serum albumin, 2.0 mM DTT, 4.0 mM CaCl2, 20 μM FAD, 100 μM tetrahydrobiopterin, 0.4 mM NADPH and 60 μM L-arginine containing 0.9 μCi of L-[2,3-^3H]-arginine. The final concentration of L-arginine in the assay is 30 μM. For hecNOS or hncNOS, calmodulin is included at a final concentration of […]. Following incubation at 37° C. for 15 minutes, the reaction is terminated by addition of 400 μL of a suspension (1 part resin, 3 parts buffer) of Dowex 50W X-8 cation exchange resin in a stop buffer containing 10 mM EGTA, 100 mM HEPES, pH 5.5 and 1 mM L-citrulline. After mixing the resin is allowed to settle and L-[2,3-^3H]-Citrulline formation is determined by counting aliquots of the supernatant with a liquid scintillation counter. Results are reported in Table I as the IC50 values of compounds for hiNOS, hecNOS and hncNOS.

[2] = target: T2, human endothelial constitutive NOS (hecNOS) (Homo sapiens, UniProt P29474); assay: Citrulline assay for nitric oxide synthase, hecNOS; assay type: biochemical; conditions: recombinant enzyme, conversion of L-[2,3-3H]-arginine to citrulline, 30 μM L-arginine, calmodulin included
T2 construct: made in house; host or cells: Sf9 insect cells (baculovirus vector)
Description: as §1, §2

[3] = target: T3, Human inducible NOS (hiNOS) (Homo sapiens, UniProt P35228); assay: Citrulline assay for nitric oxide synthase, hiNOS; assay type: biochemical; conditions: recombinant enzyme, conversion of L-[2,3-3H]-arginine to citrulline, 30 μM L-arginine
T3 construct: made in house; host or cells: Sf9 insect cells (baculovirus vector)
Description: as §1, §2

| IC50 [1] [µM] | IC50 [2] [µM] | IC50 [3] [µM] | melting point [°C] | SMILES |
| --- | --- | --- | --- | --- |
|  |  |  | 198 to 200 | CC(=NO)NC/C(F)=C\CC[C@H](N)C(=O)O [Example 10, (2S,5E)-2-amino-6-fluoro-7-[(1-hydroximinoethyl)amino]-5-heptenoic acid] |
| 105 | 303 | 12 |  | CC(=N)NC/C(F)=C/CC[C@H](N)C(=O)O [Example 3, (2S,5Z)-2-amino-6-fluoro-7-[(1-iminoethyl)amino]-5-heptenoic acid, dihydrochloride] |
| 3.6 | 68 | 0.36 |  | CC(=N)NC/C(F)=C\CC[C@H](N)C(=O)O [Example 1, (2S,5E)-2-amino-6-fluoro-7-[(1-iminoethyl)amino]-5-heptenoic acid, dihydrochloride, monohydrate] |

The next lines start with the compound.

| SMILES | IC50 [1] [µM] | IC50 [2] [µM] | IC50 [3] [µM] | melting point [°C] |
| --- | --- | --- | --- | --- |
| CC(=N)NC/C(F)=C/CC[C@H](N)C(=O)O [Example 4, (2S,5Z)-2-amino-6-fluoro-7-[(1-iminoethyl)amino]-5-heptenoic acid, trihydrochloride, dihydrate] | 65 | 112 | 8.6 |  |
| CC(=N)NCC(F)=CCC[C@H](N)C(=O)O (mixture of isomers) [Example 2, (2S,5E/Z)-2-amino-6-fluoro-7-[(1-iminoethyl)amino]-5-heptenoic acid, dihydrochloride] | 21 | 195 | 2.2 |  |
| CC(=N)NC/C(F)=C\CC[C@@H](N)C(=O)O [Example 5, (2R,5E)-2-amino-6-fluoro-7-[(1-iminoethyl)amino]-5-heptenoic acid, dihydrochloride, monohydrate] | 29 | 279 | < 5 |  |
